Laboratory results as given in US7238669B2, “Phage-display peptides as novel antimicrobial agents against Haemophilus influenzae” (priority 2002, dated 2007).

Assays:
[1] = system: Int-1 strain of NTHi; experiment: Inhibition of Int-1 growth by phage-displayed peptides (overnight in sBHI broth, OD630 and colony counts); assay type: cell-based, Haemophilus influenzae; conditions: for MIC concentration resulting in no bacterial growth: FIGS. 3A and 3B
Procedure: The next day, the optical densities of the bacterial cultures were evaluated by direct measurement of the optical densities at OD630 nm.
Int-1, a non-typeable clinical isolate, was isolated in 1991 from the blood of a child with clinical symptoms of meningitis. It is virulent in rat models and is able to survive in human serum. Kw20, a non-typeable strain, was isolated in 1954. R3001, a non-typeable clinical isolate, was isolated from a bronchial lavage of a cystic fibrosis patient. R2140, is a non-typeable clinical isolate. R538 is a Haemophilus influenzae type b ATCC strain No. 9795. E1a is a type b Haemophilus influenzae clinical isolate.

[2] = system: NTHi; experiment: Microscopic examination of cell membrane integrity; assay type: cell-based, Haemophilus influenzae; conditions: microscopic results
[3] = system: Proteus; experiment: Growth of other bacterial species in presence of hi3/17; assay type: cell-based, Proteus mirabilis; conditions: FIG. 4
Procedure: (§1) (Salmonella), Enterococcus faecialis (E. faec.), Staphylococcus aureus (S. aur.) and Pseudomonas aeruginosa (P. aeru.). One hundred and fifty μl of the test bacteria were incubated in the presence of either hi3/17, f88 unselected phage display library in sBHI broth (supplemented with 10 μg/mL heme and NAD+) or control sBHI at 37° C. The next day, the optical densities of the bacterial cultures were evaluated by direct measurement of the optical densities at OD630 nm. Dilutions of the bacteria were incubated on sBHI agar plates to determine the total number of colonies per well.

[4] = system: Staphylococcus aureus; experiment: as above; assay type: cell-based; conditions: FIG. 4
Procedure: as §1

[5] = system: Enterococcus faecialis; experiment: as above; assay type: cell-based; conditions: FIG. 4
Procedure: as §1

[6] = system: Proteus; experiment: Binding to bacteria via ELISA; set-up: species or system Proteus mirabilis
[7] = system: Enterococcus faecialis; experiment: Binding to bacteria via ELISA

Row | Sequence | bactericidal activity against Int-1 [1] | MIC concentration resulting in no bacterial growth [1] | effect on cell membrane integrity of NTHi [2] | antimicrobial activity against Proteus [3] | inhibition of growth of Staphylococcus aureus [4] | antimicrobial activity against Enterococcus faecialis [5] | MIC [1] [virions per μl] | greater antimicrobial activity towards Int-1 compared with Group 2 phage displayed peptides [1] | binding via ELISA [6] | binding via ELISA [7]
1 | VVFLSSRNSAVFTDF [fUSE5/2] | bactericidal | 2.4×10^10 virions | altered the cell membrane integrity | – | – | – | – | – | – | –
2 | KQRTSIRATEGCLPS [hi3/17] | bactericidal | 3.64×10^9 virions | altered the cell membrane integrity | no activity | completely inhibit the growth | no activity | ~1e10 | over 5 fold | binding being detectable | binding being detectable
